From patent publication US8273775B2, “Non-steroidal brassinosteroid mimetic” (priority 2006, dated 2012)

Test system: gene expression in Col-0 seedling shoots
Assay: Microarray analysis (ATH1 Affymetrix) after BL or abrasin treatment
Format: in vivo, Arabidopsis
Protocol: FIG. 14: Clustering of gene expression profiles by QT-clust analysis. Clusters illustrating the major patterns of the data sets. Points: BIK-30: 30 μM abrasin 30 min; BL-30: 1 μM brassinolide 30 min; DMSO-30: control DMSO 30 min; BIK-120: 30 μM abrasin 120 min; BL-120: 1 μM brassinolide 120 min; DMSO-120: control DMSO 120 min.
Col-0 seeds were germinated vertically on ½ MS medium for 7 days under 16 h light/8 h dark cycles. The seedlings were overlaid with liquid ½ MS medium containing 1 μM brassinolide (BL, Fuji Chemical Industries, Ltd., Toyama, Japan), 30 μM abrasin (BIK, ChemBridge Corporation) and DMSO and treated for 30 and 120 min. The shoot parts were collected for RNA isolation. All sampling points were performed in three independent experiments. RNA was extracted using RNeasy kit (Qiagene). […] total RNA per array was used to hybridise the ATH1 Affymetrix Arabidopsis arrays according to standard procedure. The overrepresentation analyses were performed using BiNGO software (Maere et al., 2005).
We performed a microarray analysis using the Arabidopsis whole genome chip (Affymetix) to determine whether abrasin activated the expression of BR-inducible genes at transcriptional level. Wild-type Col-0 seedlings were exposed to 1 μM BL, 30 μM ABRASIN and DMSO (mock-treatment) for two time points (30 min and 120 min) and the shoot parts were collected for RNA isolation. The analysis of the variance of the normalized gene expression data took in account the variability parameters affecting the expression level: type of hormone treatment, duration of treatment and the interaction between these two.

O=C(O)CCC(=O)Nc1ccc(Br)cn1 [abrasin, 4-[(5-bromo-2-pyridinyl)amino]-4-oxobutanoic acid]
Fold-change of gene AT2G42380 (bZIP transcription factor family protein) (30 min, 265877_at, Cluster 6): 1.65 | Fold-change of gene AT2G45080 (cyclin family protein) (30 min, 266124_at, Cluster 8): 0.77 | Fold-change AT1G04330 expressed protein (120 min): 4.41 | Fold-change AT1G05470 endonuclease/exonuclease/phosphatase family protein (120 min): 2.59 | Fold-change AT1G06520 Encodes a membrane associated mitochondrial localized protein (120 min): 2.28 | Fold-change AT1G06570 4-hydroxyphenylpyruvate dioxygenase (HPD) (120 min): 0.29 | Fold-change AT1G10550 xyloglucan:xyloglucosyl transferase (120 min): 1.66 | Fold-change AT1G12710 F-box family protein (120 min): 1.41 | Fold-change AT1G12750 rhomboid family protein (120 min): 1.60 | Fold-change AT1G14130 2-oxoglutarate-dependent dioxygenase (120 min): 2.47 | Fold-change AT1G14700 purple acid phosphatase (120 min): 0.47 | Fold-change AT1G16640 transcriptional factor B3 family protein (120 min): 2.20 | Fold-change AT1G17230 leucine-rich repeat family protein (120 min): 0.22 | Fold-change AT1G18020; AT1G17990 [AT1G18020, 12-oxophytodienoate reductase, (120 min): 1.78 | Fold-change AT1G19320 pathogenesis-related thaumatin family protein (120 min): 0.50 | Fold-change AT1G20350 mitochondrial import inner membrane translocase subunit (120 min): 2.67 | Fold-change AT1G21050 expressed protein (120 min): 0.14 | Fold-change AT1G21760 F-box family protein (120 min): 0.46 | Fold-change AT1G22360 UDP-glucoronosyl/UDP-glucosyl transferase family protein (120 min): 0.32 | Fold-change AT1G23080 auxin efflux carrier protein (PIN7) (120 min): 0.33 | Fold-change AT1G26800 zinc finger (C3HC4-type RING finger) family protein, (120 min): 4.39 | Fold-change AT1G27730 zinc finger (C2H2 type) family protein (120 min): 1.06 | Fold-change AT1G28130 encodes an IAA-amido synthase (120 min): 0.40 | Fold-change AT1G28190 expressed protein (120 min): 1.65 | Fold-change AT1G28480 glutaredoxin family protein (120 min): 3.97 | Fold-change AT1G31040 zinc-binding protein-related (120 min): 4.37 | Fold-change AT1G31310 hydroxyproline-rich glycoprotein family protein (120 min): 2.45 | Fold-change AT1G31770 ABC transporter family protein (120 min): 0.50 | Fold-change AT1G32190 expressed protein (120 min): 0.07 | Fold-change AT1G32690 expressed protein (120 min): 0.26 | Fold-change AT1G36940 expressed protein (120 min): 0.32 | Fold-change AT1G49780 U-box domain-containing protein (120 min): 0.56 | Fold-change AT1G53870; AT1G53890 [AT1G53870, expressed protein (120 min): 0.51 | Fold-change AT1G54050 17.4 kDa class III heat shock protein (HSP17.4-CIII) (120 min): 2.86 | Fold-change AT1G54200 expressed protein (120 min): 2.19 | Fold-change AT1G55920 serine O-acetyltransferase (120 min): 2.16 | Fold-change AT1G57560 myb family transcription factor (MYB50) (120 min): 2.65 | Fold-change AT1G59590 expressed protein (120 min): 2.08 | Fold-change AT1G59660 nucleoporin family proteinmily (120 min): 2.94 | Fold-change AT1G62300 WRKY family transcription factor (120 min): 0.71 | Fold-change AT1G63050 membrane bound O-acyl transferase (MBOAT) family protein (120 min): 0.27 | Fold-change AT1G66160 U-box domain-containing protein, (120 min): 1.91 | Fold-change AT1G66890 expressed protein (120 min): 0.14 | Fold-change AT1G68330 expressed protein (120 min): 2.78 | Fold-change AT1G68810 basic helix-loop-helix (bHLH) family protein (120 min): 0.41 | Fold-change AT1G69160 expressed protein (120 min): 0.33 | Fold-change AT1G70990 proline-rich family protein (120 min): 3.50 | Fold-change AT1G71030 Encodes a putative myb family transcription factor (120 min): 0.46 | Fold-change AT1G72060 expressed protein (120 min): 5.97 | Fold-change AT1G72180 leucine-rich repeat transmembrane protein kinase (120 min): 0.11 | Fold-change AT1G72800 nuM1-related, contains (120 min): 2.15 | Fold-change AT1G75270 dehydroascorbate reductase (120 min): 2.62 | Fold-change AT1G75500 nodulin MtN21 family protein (120 min): 0.37 | Fold-change AT1G76240 expressed protein, (120 min): 0.07 | Fold-change AT1G76410 zinc finger (C3HC4-type RING finger) (120 min): 0.16 | Fold-change AT1G79110 expressed protein (120 min): 0.45 | Fold-change AT1G79630 protein phosphatase 2C family protein (120 min): 0.35 | Fold-change AT1G80440 kelch repeat-containing F-box family protein (120 min): 2.89 | Fold-change AT2G01300 expressed protein (120 min): 3.12 | Fold-change AT2G01990 expressed protein, (120 min): 2.56 | Fold-change AT2G04240 zinc finger (C3HC4-type RING finger) family protein (120 min): 1.72 | Fold-change AT2G05540 glycine-rich protein (120 min): 0.54 | Fold-change AT2G12290; AT4G19700 [AT2G12290, expressed protein]; [AT4G19700, expressed protein] (120 min): 0.53 | Fold-change AT2G18010 auxin-responsive family protein (SAUR10) (120 min): 3.94 | Fold-change AT2G19800 expressed protein (120 min): 2.22 | Fold-change AT2G22860 phytosulfokines 2 (PSK2) (120 min): 0.19 | Fold-change AT2G23180 cytochrome P450, putative (120 min): 0.36 | Fold-change AT2G23320 WRKY family transcription factor (120 min): 1.19 | Fold-change AT2G26530 expressed protein (120 min): 1.99 | Fold-change AT2G26710 cytochrome p450 family (BAS1) (120 min): 2.26 | Fold-change AT2G28510 Dof-type zinc finger domain-containing protein (120 min): 1.19 | Fold-change AT2G29340 short-chain dehydrogenase/reductase (SDR) family protein (120 min): 3.73 | Fold-change AT2G29990 pyridine nucleotide-disulphide oxidoreductase family protein (120 min): 1.38 | Fold-change AT2G30070 potassium transporter (KUP1) (120 min): 0.22 | Fold-change AT2G31230 encodes a member of the ERF (ethylene response factor) (120 min): 3.17 | Fold-change AT2G34650 protein kinase PINOID (PID) (120 min): 2.52 | Fold-change AT2G36220 expressed protein (120 min): 2.76 | Fold-change AT2G37590 Dof-type zinc finger domain-containing protein (120 min): 5.81 | Fold-change AT2G38470 WRKY family transcription factor (120 min): 1.34 | Fold-change AT2G39710 aspartyl protease family protein (120 min): 2.52 | Fold-change AT2G40340; AT2G40350 [AT2G40340, encodes a member of the DREB subfamily A-2 of ERF/AP2 (120 min): 3.20 | Fold-change AT2G41250 haloacid dehalogenase-like hydrolase family protein (120 min): 0.33 | Fold-change AT2G41640 expressed protein (120 min): 2.53 | Fold-change AT2G42280 basic helix-loop-helix (bHLH) family protein (120 min): 0.28 | Fold-change AT2G43060 expressed protein, similar to cDNA bHLH transcription factor (120 min): 0.25 | Fold-change AT2G43280 far-red impaired responsive family protein (120 min): 0.48 | Fold-change AT2G43290 calmodulin-like protein (MSS3) (120 min): 1.45 | Fold-change AT2G44130 kelch repeat-containing F-box family protein (120 min): 7.72 | Fold-change AT2G44500 expressed protein (120 min): 2.19 | Fold-change AT2G45210 auxin-responsive protein-related (120 min): 0.24 | Fold-change AT2G45680 TCP family transcription factor (120 min): 0.46 | Fold-change AT2G46225 Encodes a subunit of the WAVE complex (120 min): 0.58 | Fold-change AT2G47440 DNAJ heat shock N-terminal domain-containing protein (120 min): 1.64 | Fold-change AT3G04210 disease resistance protein (TIR-NBS class), putative, (120 min): 3.17 | Fold-change AT3G09920 phosphatidylinositol-4-phosphate 5-kinase family protein (120 min): 1.07 | Fold-change AT3G12920 expressed protein (120 min): 0.31 | Fold-change AT3G13040 myb family transcription factor (120 min): 0.48 | Fold-change AT3G13510 expressed protein (120 min): 0.42 | Fold-change AT3G13980 expressed protein (120 min): 0.08 | Fold-change AT3G14370 protein kinase family protein (120 min): 2.16 | Fold-change AT3G14560 expressed protein (120 min): 0.35 | Fold-change AT3G16570 rapid alkalinization factor (RALF) family protein (120 min): 0.36 | Fold-change AT3G17860 expressed protein (120 min): 0.45 | Fold-change AT3G18830 polyol/cyclitol/monosaccharide-H+-symporte (120 min): 2.60 | Fold-change AT3G19380 U-box domain-containing protein (120 min): 0.48 | Fold-change AT3G23030 auxin-responsive protein/indoleacetic acid-induced protein 2 (IAA2) (120 min): 0.25 | Fold-change AT3G23550 MATE efflux family protein (120 min): 0.38 | Fold-change AT3G25710 basic helix-loop-helix (bHLH) family protein (120 min): 0.10 | Fold-change AT3G25900 homocysteine S-methyltransferase 1 (HMT-1) (120 min): 2.67 | Fold-change AT3G26910 hydroxyproline-rich glycoprotein family protein (120 min): 1.85 | Fold-change AT3G30180 cytochrome p450 enzyme (120 min): 0.06 | Fold-change AT3G46880 expressed protein, (120 min): 1.51 | Fold-change AT3G47800 aldose 1-epimerase family protein (120 min): 0.57 | Fold-change AT3G48970 copper-binding family protein (120 min): 0.38 | Fold-change AT3G49810 U-box domain-containing protein (120 min): 1.12 | Fold-change AT3G50650 scarecrow-like transcription factor 7 (SCL7) (120 min): 2.48 | Fold-change AT3G50660 steroid 22-alpha-hydroxylase (CYP90B1) (DWF4) (120 min): 0.02 | Fold-change AT3G50750 brassinosteroid signalling positive regulator-related (BEH1) (120 min): 0.31 | Fold-change AT3G52490 heat shock protein-related (120 min): 2.41 | Fold-change AT3G53810 lectin protein kinase (120 min): 2.23 | Fold-change AT3G54950 patatin-related, (120 min): 0.43 | Fold-change AT3G55120 chalcone-flavanone isomerase (120 min): 0.39 | Fold-change AT3G55150 exocyst subunit EXO70 family protein (120 min): 0.48 | Fold-change AT3G55840 expressed protein (120 min): 6.96 | Fold-change AT3G61460 zinc finger (C3HC4-type RING finger) family protein (BRH1) (120 min): 0.32 | Fold-change AT3G63300 expressed protein (120 min): 2.07 | Fold-change AT4G01680 myb family transcription factor (MYB55) (120 min): 0.14 | Fold-change AT4G02410 lectin protein kinase family protein (120 min): 1.55 | Fold-change AT4G08040 1-aminocyclopropane-1-carboxylate synthase, putative (120 min): 0.02 | Fold-change AT4G09460 myb family transcription factor (120 min): 3.27 | Fold-change AT4G12390 invertase/pectin methylesterase inhibitor family protein (120 min): 0.44 | Fold-change AT4G12410 auxin-responsive family protein (120 min): 0.31 | Fold-change AT4G14130 xyloglucan:xyloglucosyl transferase (120 min): 0.02 | Fold-change AT4G15975 zinc finger (C3HC4-type RING finger) family protein (120 min): 3.28 | Fold-change AT4G16146 expressed protein (120 min): 0.49 | Fold-change AT4G16563 aspartyl protease family protein (120 min): 1.65 | Fold-change AT4G16670 expressed protein (120 min): 0.34
